Our source for the EC50 values is patent US9840532B2, “5′-substituted nucleoside compounds” (Eli Lilly and Company, priority 2015, dated 2017).

Each structure is given as a SMILES string.

The experiment deals with PRMT5-dependent alternative splicing of MDM4 in A375 melanoma cells. Description: MDM4 Exon5/6 qPCR Assay in A375 Tumor Cells. Type of experiment: cell-based. The following applies: Homo sapiens, A-375, 72 hr, Mean ± SEM. How it is done:
Culture A375 tumor cells (ATCC), a melanoma cancer cell line, to 70%-90% confluence in T150 flasks with the growth medium (DMEM; HYCLONE™ #SH30022 with 10% FBS; GIBCO® 10082-147 or equivalent). Treat the cells with standard trypsin/EDTA treatment for 3 min and aspirate and wash with PBS to release the adherent cells from the culture flask. Seed the cells into a 96 well plate (Costar 3596) at 5000/well in growth medium (90 μL). Incubate the plate overnight at 37° C. and 5% CO2 and treat the cells with test compound at serial dilutions ([…], final DMSO addition of 0.2% yield) for 72 hr. Measure activity relative to maximum (2.0 μM of Example 2 and minimum (0.2% DMSO) controls.
On Day 5 after incubation, remove the medium from the culture plates and wash the cells twice with cold PBS (150 μL/well). Prepare Lysis Working Reagent from the TAQMAN® Gene Expression Cells-to-CT Kit (INVITROGEN™ cat. # AM1729) by dilution of DNAse 1 into Lysis Solution at 1/100. Add Lysis Working Reagent (50 μL/well) to the cell plates, mix well, and incubate at room temperature for 5 min Add kit stop solution (5 μL) to each well, mix the wells, and incubate for 2 min at room temperature. Prepare Reverse Transcriptase Master Mix in the following volume ratios; RT buffer: Nuclease-free water: RT Enzyme at 62.5:31.25:6.25. Add RT mix (48 μL/well) to each well of a 96-well NUNC™ plate (THERMO SCIENTIFIC™ #260860). Add RT mix (20 μL) and each cell lysate sample (5 μL) into a 384 PCR plate (Clear Optical Reaction Plate, cat. #4309849, APPLIED BIOSYSTEMS®) quadrant 1 and add a second addition of RT Mix and cell lysate to quadrant 3. For the RT reaction, seal the plates and then place them in a thermal cycler set at 37° C. for 60 min; 95° C. for 5 min; stop at 4° C. For qPCR, prepare MDM4 exon 5 primers (Life Technologies Hs00967240-ml) and exon 6 primers (Life Technologies Hs00967242-ml) separately in the following volume ratios of RT mix: H2O: exon probe at 10:6:1. Add Exon 5 (17 μL) to odd columns of a 384 PCR plate and add exon 6 (17 μL) to the even columns. Add cDNA (3 μL, from the RT plate) by quadrant stamping to each well of the qPCR plate containing the 17 μL exon primer solution. In this manner, perform qPCR for both exons on cDNAs from a single RT reaction on an individual cell lysate. Seal the plates, spin, and place on a real-time PCR instrument (Life Technologies ViiA7 Real-Time PCR). […]
Retrieve CT data from the real-time PCR reader and perform the following calculations, where “CPD” is the value from compound-treated samples, and “DMSO” is the minimum control sample, using an Excel template: (Exon 6 CT CPD−Exon 6 CT DMSO)−(Exon 5 CT CPD−Exon 5 CT DMSO)=ΔCT 2^(−ΔCT)=Fold Change […]
Background: In qPCR the cycle at which signal appears reflects the starting amount.
In general, EC50 refers to the concentration needed to bring the measured effect to its halfway point. A higher EC50 goes with lower potency in that assay. On to `Nc1ncnc2c1ccn2[C@@H]1O[C@H]([C@H](O)c2ccccc2)[C@@H](O)[C@H]1O` [Example 2, (2R,3R,4S,5R)-2-(4-Aminopyrrolo[2,3-d]pyrimidin-7-yl)-5[(R)-hydroxy(phenyl)methyl]tetrahydrofuran-3,4-diol], for which the EC50 was determined as 36.7 nM. That is a double-digit nanomolar value.

Compound `C[C@@](O)(c1ccc(Cl)cc1)[C@H]1O[C@@H](n2ccc3c(N)ncnc32)[C@H](O)[C@@H]1O` [Example 3, (2R,3R,4S,5S)-2-(4-Aminopyrrolo[2,3-d]pyrimidin-7-yl)-5-[(1R)-1-(4-chlorophenyl)-1-hydroxy-ethyl]tetrahydrofuran-3,4-diol] gave a concentration for a half-maximal effect (EC50) of 42.4 nM.

Consider `Nc1ncnc2c1ccn2[C@@H]1O[C@H]([C@H](O)c2ccc(Cl)cc2)[C@@H](O)[C@H]1O` [Example 1, (2R,3R,4S,5R)-2-(4-Aminopyrrolo[2,3-d]pyrimidin-7-yl)-5-[(R)-(4-chlorophenyl)-hydroxy-methyl]tetrahydrofuran-3,4-diol], for which the EC50 came to 16.8 nM. Compared with the last compound, the EC50 is about 2.5-fold lower.
